Data taken from patent publication US6827926B2, “Metallotetrapyrrolic photosensitizing agents for use in photodynamic therapy” (Miravant Pharmaceuticals, Inc., priority 2001, dated 2004).
Where two headings read alike, the source gives them in different places.

Assays:
[1] = system: normal skin of CD Hairless male rats; type: in vivo, rat
Description: We tested metallo- and metal-free tetrapyrroles systemically (see following section) for normal skin response in relation to the pharmacodynamic distribution of the photosensitizers in CD hairless rats. The skin of CD hairless rats are poorly developed, often referred to as hyperkeratotic, with various sized cystic hair follicles containing concentric lamellar accumulations of keratinaceous material, which are often associated with enlarged sebaceous glands. It quickly became apparent that gallium tetrapyrroles induced a marked clearing of the hyperkeratotic lesions in the treatment areas on the hairless rats. In fact, this clearing could be induced without necrosis of the skin. No other metallotetrapyrrole type produced such effects. This observation led us to assess the metallotetrapyrrolic compounds for skin restructuring effects both topically and systemically and for their ability to reduce hair growth in the following animal models.
Photosensitizer normal skin response as well as skin healing response, was evaluated using CD Hairless male rats. Photosensitizers were administered in an liposomal egg yolk phospholipid formulation at 1, 1.5 and 2 μmol/kg body weight formulation per dose group as a single bolus intravenous injection given through a marginal tail vein using a 27 gauge needle and a 1 cc tuberculin syringe. Normal skin responses were evaluated by irradiating several spots on the skin of the rat with a 532 nm laser (150 mW/cm^2, 150J, 1 cm diameter) at 1, 6, 24, 48, and 96 hrs post injection. Normal skin responses were evaluated and documented. The time at which the last spot is observed at the concentration injected is reported in the far right hand column in Tables 3, 4, 5 and 6. Skin samples were taken for histological evaluation at days 1, 10, 20 and 22 post light treatment. Rats were housed under normal lighting and all study procedures involving the test article were conducted under light filtered through blue and green Roscolox light filters to prevent photoactivation or degradation of the drug.

[2] = system: V79 (Chinese Hamster Lung Fibroblasts) cells; assay: In vitro cytotoxicity assay (light EC50, Alamar blue); type: cell-based
Protocol: The in vitro biological evaluation of photosensitizers for their ability to photosensitize cells was performed using standard procedures. Using 5% FBS/DMEM phenol-free media, wells (180 μl/well) were plated with 5×10^4 V79 (Chinese Hamster Lung Fibroblasts) cells/ml into two 96 well plates. Plate 1 was light-treated and plate 2 served as a control. The plates were Incubated at 37° C., 5% CO2 for 3-5 hours. Standard solutions of the photosensitizers were dissolved in pre-filtered Dimethyl Sulfoxide (DMSO). Drug was diluted in 5% FBS DMEM phenol free medium. Final drug concentrations for light and dark experiments were 0.01, 0.1, 1.0, 3.0 and 5.0 μM. Twenty microliters of each concentration were added to six replicate wells to the light and dark plate. The plates were wrapped in aluminum foil to avoid photoactivation and mixed in a gyratory shaker for approximately 2 minutes. Both plates were incubated for 24 hours at 37° C., 5% CO2. After a 24 hour incubation, drug-containing media was aspirated from the plates. Each well was rinsed with 180 μl Hepes buffer salt solution (HBSS) then aspirated to remove the HBSS. 180 μl of fresh media were added (5% FBS/DMEM phenol-free) to each well. […] Plate 2 was not light treated. Immediately after light treatment, 20 μl Alamar blue was added to each well in plate 1. Alamar blue was added to plate 2 immediately after fresh media was added. The plates were mixed on a gyratory shaker for 5 min.
Both plates were incubated under dark conditions for 24 hours at 37° C., 5% CO2. After 24 hour incubation, the plates were read on a plate reader spectrophotometer (Spectra Max 250) at wavelengths 570 and 600 nm. and the percentage of cell survival recorded.

[3] = Table 3 porphyrins, 24 h drug incubation, 532 nm, 1.25 J/cm^2, read-out: In Vitro EC50 Light
[4] = Table 3, time of last skin spot observed post injection, 1 μmol, 532 nm laser

| Normal skin Response (1 μmol) in hrs ([1]; rat, in vivo) | SMILES | EC50 [2, 3] | other results |
| --- | --- | --- | --- |
| None | CCC1=C(C)C2=[N+]3C1=Cc1c(C)c(CC)c4[n]1[Zn-2]31[n]3c(c(C)c(CCC(=O)NCCCN5CCOCC5)c3=CC3=[N+]1C(=C4)C(C)=C3CCC(=O)NCCCN1CCOCC1)=C2 (stereo not drawn) [Example 63, Zinc Mesoporphyrin 3-(N-morpholino)propylamide] | 25 nM | – |
| None | CCC1=C(C)C2=[N+]3C1=Cc1c(C)c(CC)c4[n]1[Ga-2]31([OH])[n]3c(c(C)c(CCC(=O)NCCN(C)C)c3=CC3=[N+]1C(=C4)C(C)=C3CCC(=O)NCCN(C)C)=C2 [Example 70, Gallium Hydroxy Mesoporphyrin di-(N,N-dimethylaminoethylamide)] | 1700 nM | – |

Continued, molecule first:

| SMILES | Normal skin Response (1 μmol) in hrs ([1]; rat, in vivo) | EC50 [2, 3] | other results |
| --- | --- | --- | --- |
| COC(=O)CCC1=C(C)c2cc3[n-]c(cc4nc(cc5[n-]c(cc1n2)c(CCC(=O)OC)c5C)C(C)=C4C=CCN(C)C)c(C)c3C=CCN(C)C.[Ga+3].[OH-] [Example 43, Gallium Hydroxy 3,8-Bis-(N,N-dimethylaminoprop-2-en-3-yl)deuteroporphyrin dimethyl ester] | None | 2450 nM | – |
| CCC1=C(C)C2=NC1=Cc1c(C)c(CC)c3[n]1[Pt][n]1c(c(C)c(CCCC(=O)OC)c1=CC1=NC(=C3)C(C)=C1CCCC(=O)OC)=C2 [Example 47, Platinum 8,13-diethyl-3,7,12,17-tetramethylporphyrin-2,18-di(butanoic acid methyl ester)] | – | 200 nM | Normal skin Response (1 μmol) [1, 4]: 48 h |
| CCC1=C(C)c2cc3[n-]c(cc4nc(cc5[n-]c(cc1n2)c(C)c5CCC(=O)NCCCO)C(CCC(=O)NCCCO)=C4C)c(C)c3CC.[Cl-].[Ga+3] [Example 66, Gallium Chloride Mesoporphyrin di(3-hydroxypropylamide)] | None | 200 nM | – |
| CCC1=C(C)c2cc3[nH]c(cc4nc(cc5[nH]c(cc1n2)c(C)c5CCC(=O)NCCN(C)C)C(CCC(=O)NCCN(C)C)=C4C)c(C)c3CC.[Pt] [Example 71, Platinum Mesoporphyrin di(N,N-dimethylaminoethylamide)] | – | 200 nM | Normal skin Response (1 μmol) ([1]; rat, in vivo): 96 h |
| CCC1=C(C)c2cc3[n-]c(cc4nc(cc5[n-]c(cc1n2)c(C)c5CC)C(C)=C4CCCN1CCCC1)c(CCCN1CCCC1)c3C.[In+3].[OH-] [Example 76, Indium hydroxy 8,13-diethyl-3,7,12,17-tetramethylporphyrin-2,18-di(3-(N-pyrrolidino)propyl)] | – | 20 nM | Normal skin Response (1 μmol) [1, 4]: 96 h |
| CCC1=C(C)c2cc3[n-]c(cc4nc(cc5[n-]c(cc1n2)c(C)c5CC)C(C)=C4CCCN(CC)CC)c(CCCN(CC)CC)c3C.[Zn+2] [Example 79, Zinc 8,13-diethyl-3,7,12,17 tetramethylporphyrin-2,18-di((N,N-diethyl)-3-aminopropyl)] | None | – | – |
| CCOP(=O)(CCCC1=C(C)c2cc3cc(C)c(cc4nc(cc5[n-]c(cc1n2)c(CCCP(=O)(OCC)OCC)c5C)C(C)=C4)[n-]3)OCC.[Cl-].[In+3] [Example 81, Indium Chloride 3,7,12,17-tetramethylporphyrin-2,18-di((3′-diethylphosphono)propyl)] | – | 400 nM | Normal skin Response (1 μmol) [1, 4]: 48 h; photodynamic activity in vivo ([1]; text b240): photodynamically active in vivo |
| CCC1=C(CC)C2=[N+]3C1=Nc1c(CC)c(CC)c4[n]1[Pt-2]31[n]3c(c(C)c(CCC(=O)[O-])c3=CC3=[N+]1C(=C4)C(C)=C3CCC(=O)[O-])=C2.[K+].[K+] (stereo not drawn) [Example 86, Platinum 7,8,12,13-tetraethyl-12,17-dimethyl-10-azaporphyrin-2,18-di(propionic acid Potassium Salt)] | – | – | Normal skin Response (1 μmol) ([1]; rat, in vivo): 96 h |
| CCC1=C(CC)C2=Nc3c(CC)c(CC)c4[n]3[In]([Cl])[n]3c(c(C)c(CCCOC)c3=CC3=NC(=C4)C(C)=C3CCCOC)=CC1=N2 [Example 107, Indium Chloride 7,8,12,13-tetraethyl-12,17-dimethyl-10-azaporphyrin-2,18-di(3-methoxypropyl)] | – | – | Normal skin Response (1 μmol) ([1]; rat, in vivo): 96 h; EC50 ([2]; Table 4 azaporphyrins, 575 nm (Pt azaporphyrins 532 nm), 1.25 J/cm^2, read-out: In Vitro EC(50)): 50 nM |
